Measured values reported in patent US6627630B1, “Condensed pyridazine derivatives, their production and use” (Takeda Chemical Industries, Ltd., priority 1998, dated 2003).

Assays:
[1] = system: histamine-induced skin reactions; test: Effect on histamine-induced skin reactions in guinea pigs; type: in vivo, guinea pig; conditions: 1 hour before intradermal histamine
Protocol: Effect on Histamine-induced Skin Reactions in Guinea Pigs
(§1) Male Hartley guinea pigs weighing about 500 g were used. After the dorsal hair was shaved under ether anesthesia, 1 ml of a 2.5% pontamine sky blue solution was injected intravenously administered, and then 0.1 ml of histamine at 3 μg/ml was injected intradermally into 2 sites (left and right) in the back. Thirty minutes after the injection of histamine, animals were killed by bleeding and the skin was removed. Two perpendicular diameters (mm) of each blue spot on the inside of the skin were measured and multiplied; the mean for the two products was taken as the microvascular permeability index. Test compounds were suspended in a 5% gum arabic solution and orally administered in a volume of 0.2 ml/100 g body weight 1 hour before histamine administration. Animals in the control group received the same volume of a 5% gum arabic solution. The suppression rate of the sample for the title reaction was calculated using Equation 1.
Inhibition (%) of histamine-induced skin reactions=100×(1−vascular permeability index in the presence of drug/vascular permeability index in control group) Equation 1
as §1, with “bleeding and he skin was” for “bleeding and the skin was”, “measured and multiplied, the mean” for “measured and multiplied; the mean”

Structure (SMILES): O=C(CCN1CCC(OC(c2ccccc2)c2ccccc2)CC1)Nc1ccc2ncnn2n1 [Example 18A]
- Inhibition (%) of Histamine-induced Skin Reactions, 3 mg/kg Oral Administration ([1]; Table 1): 91%

Structure (SMILES): CC(C)(C(=O)O)c1cn2nc(OCCCN3CCC(OC(c4ccccc4)c4ccccc4)CC3)ccc2n1 [Example 45A]
- Inhibition (%) of Histamine-induced Skin Reactions, 3 mg/kg Oral Administration ([1]; Table 1): 91%

Structure (SMILES): CC(C)(C(=O)O)c1nc2ccc(OCCCN3CCN(C(c4ccccc4)c4ccccc4)CC3)nn2c1Cl [Example 88A, 2-[3-Chloro-6-[3-[4-(diphenylmethyl)-1-piperazinyl]propoxy]imidazo[1,2-b]pyridazin-2-yl]-2-methylpropionic Acid]
- melting point: 118 to 121 °C

Structure (SMILES): Cc1cc2nc(C(C)(C)C(=O)O)cn2nc1OCCCN1CCC(OC(c2ccccc2)c2ccccc2)CC1 [Example 89A, 2-[6-[3-[4-(Diphenylmethoxy)piperidino]propoxy]-7-methylimidazo[1,2-b]pyridazin-2-yl]-2-methylpropionic Acid]
- melting point: 122 °C

Structure (SMILES): CCOC(=O)C(C)(C)c1cn2nc(CCCCN3CCN(C(c4ccccc4)c4ccccc4)CC3)ccc2n1 [Example 94A, Ethyl 2-[6-[4-[4-(Diphenylmethyl)-1-piperazinyl]butyl]imidazo[1,2-b]pyridazin-2-yl]-2-methylpropionate]
- melting point: 105 to 106 °C

Structure (SMILES): CC(C)(C(=O)O)c1cn2nc(CCCCN3CCN(C(c4ccccc4)c4ccccc4)CC3)ccc2n1 [Example 95A, 2-[6-[4-[4-(Diphenylmethyl)-1-piperazinyl]butyl]imidazo[1,2-b]pyridazin-2-yl]-2-methylpropionic Acid]
- melting point: 108 to 110 °C

Structure (SMILES): O=C(O)C1(c2cn3nc(NCCCN4CCC(OC(c5ccccc5)c5ccccc5)CC4)ccc3n2)CC1 [Example 100A, 1-[6-[3-[4-(Diphenylmethoxy)piperidino]propylamino]imidazo[1,2-b]pyridazin-2-yl]cyclopropanecarboxylic Acid]
- melting point: 115 to 117 °C

Structure (SMILES): CC(C)(C(=O)O)c1cn2nc(CCCN3CCC(OC(c4ccccc4)c4ccccc4)CC3)ccc2n1 [Example 102A, 2-[6-[3-[4-(Diphenylmethoxy)piperidino]propyl]imidazo[1,2-b]pyridazin-2-yl]-2-methylpropionic Acid]
- melting point: 195 to 205 °C

Structure (SMILES): CC(C)(C(=O)O)c1cn2nc(CCCN3CCN(C(c4ccccc4)c4ccccc4)CC3)ccc2n1 [Example 104A, 2-[6-[3-[4-(Diphenylmethyl)-1-piperazinyl]propyl]imidazo[1,2-b]pyridazin-2-yl]-2-methylpropionic Acid]
- melting point: 176 to 178 °C

Structure (SMILES): Cc1nc2ccc(NCCCN3CCC(OC(c4ccccc4)c4ccccc4)CC3)nn2c1C(=O)O [Example 107A, [6-[3-[4-(Diphenylmethoxy)piperidino]propylamino]-2-methylimidazo[1,2-b]pyridazin-3-yl]carboxylic Acid]
- melting point: 101 to 103 °C

Structure (SMILES): CCOC(=O)C(C)(C)c1cn2nc(NCCCN3CCC(NC(c4ccccc4)c4ccccc4)CC3)ccc2n1 [Example 108A, Ethyl 2-[6-[3-[4-(Diphenylmethylamino)piperidino]propylamino]imidazo[1,2-b]pyridazin-2-yl]-2-methylpropionate]
- melting point: 115 to 117 °C

Structure (SMILES): CCOC(=O)CNC(=O)c1nc2ccc(NCCCN3CCC(OC(c4ccccc4)c4ccccc4)CC3)nn2c1Cl [Example 111A, N-[3-Chloro-6-[3-[4-(diphenylmethoxy)piperidino]propylamino]imidazo[1,2-b]pyridazine-2-carbonyl]glycine Ethyl Ester]
- melting point: 178 to 180 °C

Structure (SMILES): CCOC(=O)CCNC(=O)c1cn2nc(NCCCN3CCC(OC(c4ccccc4)c4ccccc4)CC3)ccc2n1 [Example 112A, N-[6-[3-[4-(Diphenylmethoxy)piperidino]propylamino]imidazo[1,2-b]pyridazine-2-carbonyl]-β-alanine Ethyl Ester]
- melting point: 83 to 86 °C

Structure (SMILES): c1ccc(C(OC2CCN(CCCCCNc3ccc4ncnn4n3)CC2)c2ccccc2)cc1 [Example 114A, 6-[5-[4-(Diphenylmethoxy)piperidino]pentylamino][1,2,4]triazolo[1,5-b]pyridazine]
- melting point: 96 to 98 °C

Structure (SMILES): OC(CNc1ccc2ncnn2n1)CN1CCC(OC(c2ccccc2)c2ccccc2)CC1 (centres unmarked) [Example 115A, 1-[4-(Diphenylmethoxy)piperidino]-3-[([1,2,4]triazolo[1,5-b]pyridazin-6-yl)amino]-2-propanol]
- melting point: 82 to 87 °C

Structure (SMILES): CC(C)(C)OC(=O)c1nc2ccc(NCCCN3CCC(OC(c4ccccc4)c4ccccc4)CC3)nn2n1 [Example 116A, tert-Butyl[6-[3-[4-(Diphenylmethoxy)piperidino]propylamino][1,2,4]triazolo[1,5-b]pyridazin-2-yl]carboxylate]
- melting point: 133 to 135 °C

Structure (SMILES): O=C(O)c1nc2ccc(NCCCN3CCC(OC(c4ccccc4)c4ccccc4)CC3)nn2n1 [Example 117A, [6-[3-[4-(Diphenylmethoxy)piperidino]propylamino][1,2,4]triazolo[1,5-b]pyridazin-2-yl]carboxylic Acid]
- melting point: 135 to 138 °C

Structure (SMILES): COC(=O)c1cc2ncnn2nc1NCCCN1CCC(OC(c2ccccc2)c2ccccc2)CC1 [Example 118A, Methyl[6-[3-[4-(Diphenylmethoxy)piperidino]propylamino][1,2,4]triazolo[1,5-b]pyridazin-7-yl]carboxylate]
- melting point: 120 to 122 °C

Structure (SMILES): O=C(O)c1cc2ncnn2nc1NCCCN1CCC(OC(c2ccccc2)c2ccccc2)CC1 [Example 119A, [6-[3-[4-(Diphenylmethoxy)piperidino]propylamino][1,2,4]triazolo[1,5-b]pyridazin-7-yl]carboxylic Acid]
- melting point: 207 to 209 °C

Structure (SMILES): CC(C)OC(=O)c1nc2ccc(OCCCN3CCC(OC(c4ccccc4)c4ccccc4)CC3)nn2n1 [Example 122A, Isopropyl[6-[3-[4-(Diphenylmethoxy)piperidino]propoxy][1,2,4]triazolo[1,5-b]pyridazin-2-yl]carboxylate]
- melting point: 126 to 127 °C

Structure (SMILES): O=C(O)c1nc2ccc(OCCCN3CCC(OC(c4ccccc4)c4ccccc4)CC3)nn2n1 [Example 123A, [6-[3-[4-(Diphenylmethoxy)piperidino]propoxy][1,2,4]triazolo[1,5-b]pyridazin-2-yl]carboxylic Acid]
- melting point: 173 to 177 °C

Structure (SMILES): O=C(O)CNC(=O)c1nc2ccc(NCCCN3CCC(OC(c4ccccc4)c4ccccc4)CC3)nn2n1 [Example 125A, N-[6-[3-[4-(Diphenylmethoxy)piperidino]propylamino][1,2,4]triazolo[1,5-b]pyridazine-2-carbonyl]glycine]
- melting point: 256 to 258 °C

Structure (SMILES): CCOC(=O)CNC(=O)c1nc2ccc(NCCCN3CCC(OC(c4ccccc4)c4ccccc4)CC3)nn2c1C [Example 127A, N-[6-[3-[4-(Diphenylmethoxy)piperidino]propylamino]-3-methylimidazo[1,2-b]pyridazine-2-carbonyl]glycine Ethyl Ester]
- melting point: 158 to 160 °C

Structure (SMILES): CC(C)(C(=O)O)c1cn2nc(NCCCN3CCC(OC(c4ccccc4)c4ccccc4)CC3)ccc2n1.O.O [Example 135A, 2-[6-[3-[4-(Diphenylmethoxy)piperidino]propylamino]imidazo[1,2-b]pyridazin-2-yl)-2-methylpropionic Acid Dihydrate]
- Inhibition (%) of Histamine-induced Skin Reactions, 3 mg/kg Oral Administration ([1]; Table 1): 91%
- Inhibition (%) of Histamine-induced Skin Reactions, 3 mg/kg Oral Administration ([1]; Table 3): 91%

Structure (SMILES): Cc1c(C(C)(C)C(=O)O)nc2ccc(NCCCN3CCC(OC(c4ccccc4)c4ccccc4)CC3)nn12 [Example 138A, 2-[6-[3-[4-(Diphenylmethoxy)piperidino]propylamino]-3-methylimidazo[1,2-b]pyridazin-2-yl]-2-methylpropionic Acid]
- melting point: 219 to 220 °C
